In patent publication US8278442B2, “Bicyclic aryl and heteroaryl compounds for the treatment of metabolic disorders” (Prosidion Limited, priority 2007, dated 2012) one finds IC50 and Ki data, which are given here for one compound.

Assay [1] deals with T1, mu-opioid receptor (Homo sapiens, UniProt P35372). Briefly: GTPγS functional binding assay. To be noted: mu-opioid receptor expressing membranes, agonist DAMGO 10 nM, 35S-GTPγS binding. Format: biochemical. The procedure: GTPγS Functional Binding Assays
Mu-, kappa- or delta-opioid receptor expressing membranes (5-20 μg/well) were suspended in 50 mM HEPES buffer pH 7.6 containing 3 mM MgCl2, 120 mM NaCl, 150 pM GTPγS, 10 μg/mL saponin and 3 μM GDP (μ-opioid receptor assay) or 5 μM GDP (κ- and δ-opioid receptor assay) and were pre-incubated on 96-well plates with test compound or vehicle (1% DMSO) in a total volume of 160 μL for 10 min at rt (22° C.). Specific agonists DAMGO (10 nM final concentration), U-50,488 (30 nM final concentration) or SNC-80 (10 nM final concentration) were added respectively and the plates pre-incubated for a further 15 min at rt (22° C.) ^35S-GTPγS at a final concentration in the assay of 150 pM was then added to provide a total volume per well of 200 μL and the plates incubated for 45 min at 30° C. The contents of the wells were filtered and washed 5 times with chilled 50 mM Tris buffer pH 7.6 through H2O pre-soaked GF/B filters using a Perkin Elmer Filtermate. The filters were dried and upon application of scintillant the bound radioactive content for each well determined by scintillation counting in a Wallac TriLux Microbeta scintillation counter. Non-specific binding was determined in the presence of 10 μM GTPγS. IC50 values were determined by plotting log concentration test compound against percentage increase over non-stimulated ^35S-GTPγS binding.
A general note: GTPγS is a poorly hydrolysed GTP analogue; its binding reports G protein activation.

The target of assay [2] is T1, mu-opioid receptor. In words: Competition binding assay (3H-DAMGO). To be noted: mu-opioid receptor expressing membranes, 0.5 nM 3H-DAMGO. As for the experimental part:
Competition Binding Assays
Mu-, kappa- or delta-opioid receptor expressing membranes (5-15 μg/well) were suspended in 50 mM Tris buffer pH 7.6 containing 5 mM MgCl2 and were incubated on 96-well plates with test compound or vehicle (1% DMSO) and either 0.5 nM ^3H-DAMGO, 0.8 nM ^3H—U-69,595 or 1.1 nM ^3H-DPDPE respectively in a total volume of 200 μL for 90 min at rt (22° C.). The contents of the wells were filtered and washed 5 times with chilled 50 mM Tris buffer pH 7.6 through H2O pre-soaked GF/B filters using a Perkin Elmer Filtermate. The filters were dried and upon application of scintillant the bound radioactive content for each well determined by scintillation counting in a Wallac TriLux Microbeta scintillation counter. Non-specific binding was determined in the presence of 2 μM Naloxone. IC50 values were determined by plotting log concentration test compound against specific binding and subsequent Ki values calculated.

T1 sequence (P35372 whole entry, species assumed): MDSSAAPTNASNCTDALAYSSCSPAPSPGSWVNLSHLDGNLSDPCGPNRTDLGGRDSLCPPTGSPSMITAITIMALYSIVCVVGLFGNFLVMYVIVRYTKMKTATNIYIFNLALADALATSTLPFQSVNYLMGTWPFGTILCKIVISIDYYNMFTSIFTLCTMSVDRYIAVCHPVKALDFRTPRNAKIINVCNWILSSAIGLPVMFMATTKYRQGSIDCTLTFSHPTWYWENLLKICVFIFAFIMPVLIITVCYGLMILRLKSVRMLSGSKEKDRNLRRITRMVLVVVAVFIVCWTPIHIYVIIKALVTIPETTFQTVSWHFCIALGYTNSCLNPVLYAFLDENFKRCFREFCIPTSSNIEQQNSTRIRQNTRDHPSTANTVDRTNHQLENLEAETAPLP

For orientation: IC50 means the concentration at which inhibition is half-maximal. Read a high IC50 as weaker potency. What is called Ki is a dissociation constant, usually derived from enzyme kinetics or from competition with a known ligand. Read a high Ki as lower affinity. On to `NC(=O)c1ccc(Oc2ccc(CNC3CCOCC3)c3ccccc23)nc1` [Example 16, 6-{4-[(Tetrahydropyran-4-ylamino)methyl]naphthalen-1-yloxy}nicotinamide], for which, on mu-opioid receptor [1], the IC50 was less than 100 nM. Also, the Ki on mu-opioid receptor [2] is less than 100 nM.
